According to ChEMBL document CHEMBL3046272, “Tolerance of two Bifora radians Bieb populations to ALS inhibitors in winter wheat” (2012):
The source made the active and inactive calls. The rule behind the calls is not given here.

Key:
Bifora radians [1] = assay: Herbicidal activity against ALS-inhibiting herbicide-resistant four to six-leaf stage Bifora radians infested wheat field at ED90 applied by spraying relative to ALS-inhibiting herbicide-sensitive Bifora radians; assay type: functional
Bifora radians [2] = assay: Herbicidal activity against ALS-inhibiting herbicide-resistant six to eight-leaf stage Bifora radians infested wheat field at ED50 applied by spraying relative to ALS-inhibiting herbicide-sensitive Bifora radians; assay type: functional
Bifora radians [3] = assay: Herbicidal activity against ALS-inhibiting herbicide-resistant two to four-leaf stage Bifora radians infested wheat field at ED90 applied by spraying relative to ALS-inhibiting herbicide-sensitive Bifora radians; assay type: functional
Bifora radians [4] = assay: Herbicidal activity against ALS-inhibiting herbicide-resistant four to six-leaf stage Bifora radians infested wheat field at ED50 applied by spraying relative to ALS-inhibiting herbicide-sensitive Bifora radians; assay type: functional
Bifora radians [5] = assay: Herbicidal activity against ALS-inhibiting herbicide-resistant two to four-leaf stage Bifora radians infested wheat field at ED50 applied by spraying relative to ALS-inhibiting herbicide-sensitive Bifora radians; assay type: functional
Bifora radians [6] = assay: Herbicidal activity against ALS-inhibiting herbicide-resistant six to eight-leaf stage Bifora radians infested wheat field at 15 to 20 g/ha applied by spraying measured after 14 to 56 days post treatment; assay type: functional, organism-based
Bifora radians [7] = assay: Herbicidal activity against ALS-inhibiting herbicide-resistant four to six-leaf stage Bifora radians infested wheat field at 15 to 20 g/ha applied by spraying measured after 14 to 56 days post treatment; assay type: functional, organism-based
Bifora radians [8] = assay: Herbicidal activity against ALS-inhibiting herbicide-resistant two to four-leaf stage Bifora radians infested wheat field at 15 to 20 g/ha applied by spraying measured after 14 to 56 days post treatment; assay type: functional, organism-based
Bifora radians [9] = assay: Herbicidal activity against ALS-inhibiting herbicide-resistant six to eight-leaf stage Bifora radians infested wheat field at ED90 applied by spraying relative to ALS-inhibiting herbicide-sensitive Bifora radians; assay type: functional

Row | Structure (SMILES) | Ratio (Bifora radians [1]) | Ratio (Bifora radians [2]) | Ratio (Bifora radians [3]) | Ratio (Bifora radians [4]) | Ratio (Bifora radians [5]) | Activity (Bifora radians [6]) | Activity (Bifora radians [7]) | Activity (Bifora radians [8]) | Ratio (Bifora radians [9])
1 | COc1nc(C)nc(NC(=O)NS(=O)(=O)c2ccccc2Cl)n1 [CHLORSULFURON] | 1.6 | 2.3 | 1.6 | 1.8 | 1.9 | Active | Active | Active | 2
2 | COC(=O)c1ccccc1S(=O)(=O)NC(=O)N(C)c1nc(C)nc(OC)n1 [TRIBENURON METHYL] | 1.9 | 2 | 1.8 | 1.8 | 1.7 | – | – | – | 2.4
